Patent US10335380B2, “Compounds suitable for the treatment of myeloproliferative neoplasms as well as methods for the diagnosis/prognosis of myeloproliferative neoplasms” (CNIC Fundacion Centro Nacional De investigaciones …, priority 2013, dated 2019)

Assays:
[1] = molecular target: murine receptor (β3-adrenergic) (Mus musculus, UniProt P25962); settings: cited from earlier work
[2] = system: mice transplanted with MPN BM cells (JAK2-V617F); assay: In vivo pharmacological treatments of mice transplanted with MPN (Mx1-cre;JAK2-V617F) BM cells; parameters: species or system mouse
From the text: In Mx1-cre; JAK2-V617F double-transgenic mice, expression of the human JAK2-V617F mutation is driven by the endogenous Jak2 promoter and can be conditionally expressed in haematopoietic cells upon Myxovirus resistance-1 (Mx1)-driven Cre recombinase activation by polyinosine-polycytosine (plpC). PlpC-induced transgenic mice and wild-type mice transplanted with BM cells from these mice develop progressive symptoms of PV19,20.
Age-matched, female wild-type C57BL/6J or Nes-gfp mice were used as recipients in bone marrow (BM) transplantation assays and for in vivo pharmacological treatments. […] Vehicle (saline solution) daily injections were performed in the same way. Unless indicated, treatment was initiated 4 weeks posttransplant, when animals evidenced peripheral blood signs of MPN. Mice were randomly distributed prior to treatment initiation, and disease development was monitored over time in peripheral blood samples, using an automated blood counter. […] The neuroprotective drug 4-methylcatechol (10 μg kg-1, i.p.) was injected once daily. The JAK inhibitor INCB018424 (S-Ruxilitinib, Abmole Bioscience) was administered by oral gavage (30 mg kg-1, twice per day separated 10-12 hours) in 0.5% hydroxypropylmethylcellulose (Sigma) after solubilisation in DMSO. The IL-1 receptor antagonist (Kineret, Sobi, Stockholm, Sweden) was administered by subcutaneous osmotic pumps (Alzet) infusing a continuous dosing of 40 mg kg-1 per day. Mice were sacrificed at different time points and subjected to complete necropsy; BM and spleen were analysed by histology and flow cytometry; femora and skull were used for immunostainings, and haematopoietic and stromal cells were additionally used for functional assays ex vivo.
BM cell extraction, flow cytometry and fluorescence-activated cell sorting For haematopoietic cell recovery, bones were crushed in a mortar, filtered through a 40-μm mesh to obtain single cell suspensions, and depleted of red blood cells by lysis in 0.15 M NH4Cl for 10 min at 4° C. Spleen samples were homogenised and filtered prior to lysis; blood samples were directly lysed. Cells (1-2×10^6 cells per sample) were incubated with the appropriate dilution (2-5 μg ml-1) of fluorescent antibody conjugates and 4′,6-diamidino-2-phenylindole (DAPI) for dead cell exclusion, and analysed on LSRFortessa flow cytometer (BD Biosciences, Franklin Lakes, N.J.) equipped with FACSDiva Software (BD Biosciences). […] Biotinylated antibodies were detected with fluorochrome-conjugated streptavidin (BD Biosciences). Phenotypic populations of HSC were defined as long-term haematopoietic stem cells (HSCs) (lin− Sca1+c-kit+ (LSK) CD34− Flt3−), short-term HSCs (LSK CD34+ Flt3−) and multipotent progenitors (MPP) (LSK CD34+ Flt3+).
Cells were filtered through a 40-μm mesh and erythrocytes were lysed as previously described. The resulting bone marrow-enriched cell suspensions were pelleted, washed and resuspended in PBS buffer containing 2% foetal calf serum (FCS) for further analyses. […] BM stromal CD45− CD31− Ter119− cells were further purified according to GFP fluorescence using a FACS Aria cell sorter (BD Bioscience). For the determination of apoptotic cells, samples were washed with PBS after surface antibody staining and subsequently stained with Annexin V-Pacific Blue and SYTOX AADvanced (Invitrogen, Life Technologies, Paisley, UK). For functional assays, cells were enriched by immunomagnetic depletion using biotinylated CD45 and Ter119. For immunophenotypic characterisation, total BM samples were studied by flow cytometry using the following additional antibodies: CD63 (NVG-2), CD105 (MJ7/18), CD140a (APA5), Vcam, CD51 (RMV-7), all from Biolegend; and CD90.2 from BD Biosciences.
Immunofluorescence staining of cryostat sections was performed. For whole mount staining of the calvaria, all incubation times were extended. The antibodies used were TH (Rabbit pAb, Millipore) and GFAP (Rabbit pAb, Dako).

[3] = cited from earlier work
[4] = system: CD45+ haematopoietic cells from BM of Nes-gfp;Mx1-cre;JAK2-V617F mice and control littermates; assay: Colony-forming units in culture (CFU-C) with drug added in vitro; type: cell-based, mouse; settings: scored after one week in culture
Protocol: Colony-forming units in culture (CFU-C) assay was performed. […] Colonies of more than 50 cells were scored after 7 days of incubation at 37° C., 5% CO2, 20% O2 in a water-jacketed incubator. For CFU-F assays, BM CD45− Ter119− cells were plated into 6-well dishes and cultured in maintenance medium (α-MEM, 15% FCS with antibiotics). After 10-12 days in culture, adherent cells were fixed with 100% methanol and stained with Giemsa stain (Sigma) to reveal fibroblastic clusters. Colonies with more than 50 cells were scored as CFU-F.

BM-derived Schwann cells = assay: Co-culture of BM-derived Schwann cells with JAK2V617F+ BM LSK cells, apoptosis by TUNEL; type: cell-based, mouse; settings: IL1ra 200 ng ml-1, 24 h co-culture
Protocol: For co-culture of BM-derived Schwann cells and MSCs with BM LSK cells from control and mutant mice, neonatal BM CD45− CD31− Ter119− Nes-GFP+ Pdgfrα−/+ cells containing Schwann cell precursors and MSCs, respectively (Isern J et al., submitted), were sorted and cultured under Schwann cell differentiation conditions, as previously described 34, or mesenchymal culture conditions, in MEMα supplemented with 10 ng ml-1 PDGFAB, 15% FBS. Both were co-cultured for 24 h with primary BM LSK cells isolated by FACS from control or mutant mice. Schwann cells derived from sorted GFP+ Pdgfrα− BM precursors were additionally incubated with IL1ra (200 ng ml-1) for the co-culture period. After 24 h of co-culture, haematopoietic cells were washed away and the remaining adherent Schwann cells were fixed and analysed for apoptosis by TUNEL.

[5] = IL1ra 40 mg kg-1 per day, subcutaneous osmotic pumps, 18 weeks

Chain of murine receptor (β3-adrenergic) (P25962 whole entry): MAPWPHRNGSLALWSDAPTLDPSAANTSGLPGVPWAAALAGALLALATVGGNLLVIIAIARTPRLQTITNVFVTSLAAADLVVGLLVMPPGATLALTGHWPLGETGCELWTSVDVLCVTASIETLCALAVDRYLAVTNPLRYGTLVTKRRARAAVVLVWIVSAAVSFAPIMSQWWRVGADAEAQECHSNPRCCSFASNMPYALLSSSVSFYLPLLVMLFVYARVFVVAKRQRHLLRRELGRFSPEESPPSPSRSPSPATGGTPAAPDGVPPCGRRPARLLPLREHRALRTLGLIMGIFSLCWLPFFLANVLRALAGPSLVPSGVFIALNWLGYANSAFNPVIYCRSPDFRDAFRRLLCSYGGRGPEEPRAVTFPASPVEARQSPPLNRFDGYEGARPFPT

Nc1nc(CC(=O)Nc2ccc(CCNC[C@H](O)c3ccccc3)cc2)cs1 [Mirabegron]
affinity for the murine receptor [1]: relatively low | MPN progression ([2]; BRL37344 or Mirabegron 2 mg kg-1 i.p. twice a day): delays | several MPN markers (blood counts) ([2]; Mirabegron 2 mg kg-1 i.p. twice a day, last two weeks, 8 weeks after transplantation, to lower extent than BRL37344): improved | solubility [3]: poor

Cc1ccc(O)c(O)c1 [4-methylcatechol]
incipient MPN signs (haematological parameters) ([2]; 8 weeks after transplantation, treatment for the last 4 weeks): improved | mutant haematopoietic progenitor expansion ([2]; early treatment, 4 weeks, BRL37344 2 mg kg-1 twice a day, 4-methylcatechol 10 μg kg-1 once daily): prevented | BM Schwann cells (Gfap immunostaining) ([2]; symptomatic MPN mice, 4-methylcatechol 10 μg kg-1 i.p. once daily over a month): preserved | MPN-associated neutrophilia ([2]; symptomatic MPN mice, treatment started 4 weeks after transplantation, BRL37344 2 mg kg-1 i.p. twice a day, 4-methylcatechol 10 μg kg-1 i.p. once daily): prevented | growth of cultured haematopoietic progenitors (CFU-C) [4]: neither 4-methylcatechol nor BRL37344 affected

interleukin-1 receptor antagonist: IL-1 receptor antagonist (Kineret, Sobi, Stockholm, Sweden)
3-fold higher apoptotic rate of Schwann cells co-cultured with JAK2V617F+ haematopoietic progenitors (BM-derived Schwann cells): blocked | BM MSC frequency [2, 5]: increased | caspase-1 mRNA expression in haematopoietic progenitors [2, 5]: reduced | platelet counts ([2]; IL1ra 40 mg kg-1 per day, subcutaneous osmotic pumps, 18 weeks, starting 2 weeks after transplant): reduced
